Measured values from ChEMBL document CHEMBL1201862, “PubChem BioAssay data set” (2004).
One block for each compound: values may come before it. Calls of active or inactive are those of the source.

Legend:
[1] = biological target: T1, X-box-binding protein 1 (Homo sapiens, UniProt P17861); assay type: functional, Cricetulus griseus;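 note: confirmatory dose-response counter-screen serving a CHOP assay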
T1 sequence (P17861 whole entry): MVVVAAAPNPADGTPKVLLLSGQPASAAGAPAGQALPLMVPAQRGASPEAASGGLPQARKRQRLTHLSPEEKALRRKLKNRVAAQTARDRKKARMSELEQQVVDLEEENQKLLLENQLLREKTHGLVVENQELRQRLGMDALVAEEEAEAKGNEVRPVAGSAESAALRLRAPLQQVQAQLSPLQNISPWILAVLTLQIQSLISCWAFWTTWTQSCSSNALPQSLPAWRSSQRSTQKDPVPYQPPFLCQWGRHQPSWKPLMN

[2] = biological target: T2, DNA repair protein RAD52 homolog (Homo sapiens, UniProt P43351); assay type: functional, biochemical
T2 sequence (P43351 whole entry): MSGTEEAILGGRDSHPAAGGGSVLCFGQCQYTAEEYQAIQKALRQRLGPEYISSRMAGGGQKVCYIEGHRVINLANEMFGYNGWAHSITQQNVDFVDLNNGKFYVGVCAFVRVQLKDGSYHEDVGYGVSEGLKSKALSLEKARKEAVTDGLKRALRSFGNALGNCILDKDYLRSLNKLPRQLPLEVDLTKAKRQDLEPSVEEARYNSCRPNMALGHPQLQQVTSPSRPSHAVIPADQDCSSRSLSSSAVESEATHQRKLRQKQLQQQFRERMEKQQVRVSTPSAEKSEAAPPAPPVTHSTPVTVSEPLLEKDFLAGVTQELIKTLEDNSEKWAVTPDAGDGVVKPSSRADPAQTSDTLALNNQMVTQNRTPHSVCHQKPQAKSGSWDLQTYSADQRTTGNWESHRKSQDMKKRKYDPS

[3] = biological target: DNA dC->dU-editing enzyme APOBEC-3G (Homo sapiens, UniProt Q9HC16); test: Dose Response confirmation of small molecule APOBEC3G DNA Deaminase Inhibitors via a fluorescence-based single-stranded DNA deaminase assay. [Related pubchem assays (depositor defined):AID493012, AID493028]; assay type: functional
[4] = biological target: Peroxisome proliferator-activated receptor gamma/Nuclear receptor coactivator 1 (Homo sapiens, UniProt P37231); assay type: functional;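 note: agonist potency as compounds enhance coactivator SRC-1 recruitment to PPARgamma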
[5] = biological target: Peroxisome proliferator-activated receptor gamma/Nuclear receptor coactivator 3 (Homo sapiens, UniProt P37231); assay type: functional;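 note: agonist potency for raising coactivator recruitment to the receptor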
[6] = biological target: Peroxisome proliferator-activated receptor gamma/Nuclear receptor coactivator 2 (Homo sapiens, UniProt P37231); assay type: functional;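 note: agonist potency for raising coactivator recruitment to the receptor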
[7] = biological target: Neurotensin receptor type 1 (Homo sapiens, UniProt P30989); assay type: functional;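 note: Image-based confirmatory dose-response assay measuring agonist activity at NTR1; NTR1-expressing U2OS osteosarcoma cells imaged for beta-arrestin GFP spot formation; agonist potency where compounds increase beta-arrestin recruitment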
[8] = biological target: Genome polyprotein (dengue virus type 2, UniProt P29990); test: flavivirus cap methylation enzyme inhibition – biochemical, confirmation dose response, primary screen (AID 588689); assay type: functional
[9] = biological target: T3, Aminopeptidase N (Plasmodium falciparum FcB1/Columbia, UniProt O96935); test: malaria alanyl aminopeptidase activity blockers – biochemical, fluorogenic H-Leu-NHMec substrate, 1536-well (AID 1445); design: species or system Plasmodium falciparum 3D7, 3D7
T3 sequence (O96935 whole entry): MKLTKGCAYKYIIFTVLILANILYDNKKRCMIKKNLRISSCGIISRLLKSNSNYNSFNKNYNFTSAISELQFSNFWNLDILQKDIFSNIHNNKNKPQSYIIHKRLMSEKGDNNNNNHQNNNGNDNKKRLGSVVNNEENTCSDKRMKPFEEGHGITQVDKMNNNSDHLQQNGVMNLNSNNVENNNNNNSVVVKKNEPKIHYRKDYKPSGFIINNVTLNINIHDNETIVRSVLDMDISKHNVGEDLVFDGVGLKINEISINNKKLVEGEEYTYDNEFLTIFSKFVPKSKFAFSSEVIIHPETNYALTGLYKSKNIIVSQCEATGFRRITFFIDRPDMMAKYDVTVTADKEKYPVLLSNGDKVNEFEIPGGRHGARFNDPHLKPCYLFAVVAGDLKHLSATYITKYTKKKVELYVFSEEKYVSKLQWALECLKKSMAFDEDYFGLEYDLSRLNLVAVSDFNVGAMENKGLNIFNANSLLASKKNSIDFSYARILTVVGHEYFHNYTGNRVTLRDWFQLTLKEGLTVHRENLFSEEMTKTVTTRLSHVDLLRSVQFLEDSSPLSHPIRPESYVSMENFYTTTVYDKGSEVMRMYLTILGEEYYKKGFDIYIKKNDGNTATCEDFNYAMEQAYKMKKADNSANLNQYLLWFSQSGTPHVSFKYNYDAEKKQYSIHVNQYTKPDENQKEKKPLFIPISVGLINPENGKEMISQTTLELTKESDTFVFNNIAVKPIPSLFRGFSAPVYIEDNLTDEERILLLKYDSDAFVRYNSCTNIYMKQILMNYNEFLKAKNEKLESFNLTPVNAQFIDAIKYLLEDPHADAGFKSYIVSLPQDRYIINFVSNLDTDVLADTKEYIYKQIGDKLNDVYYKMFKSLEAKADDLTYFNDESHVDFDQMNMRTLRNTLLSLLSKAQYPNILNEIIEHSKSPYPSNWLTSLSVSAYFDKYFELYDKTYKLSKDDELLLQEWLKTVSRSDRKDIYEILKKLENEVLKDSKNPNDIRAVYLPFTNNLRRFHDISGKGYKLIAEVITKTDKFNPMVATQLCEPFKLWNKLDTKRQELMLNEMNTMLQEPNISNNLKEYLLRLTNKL

[10] = biological target: T4, Aspartyl aminopeptidase (Plasmodium falciparum 3D7, UniProt Q8I2J3); test: Counterscreen for inhibitors of M1 and M17 aminopeptidases: QFRET-based biochemical high throughput dose response assay for inhibitors of the Plasmodium falciparum M18 Aspartyl Aminopeptidase (PFM18AAP). [Related PubChem assays: 1619 (Screening assay (M17LAP inhibitors).), 1445 (Screening assay (M1AAP inhibitors).)]
T4 sequence (Q8I2J3 whole entry): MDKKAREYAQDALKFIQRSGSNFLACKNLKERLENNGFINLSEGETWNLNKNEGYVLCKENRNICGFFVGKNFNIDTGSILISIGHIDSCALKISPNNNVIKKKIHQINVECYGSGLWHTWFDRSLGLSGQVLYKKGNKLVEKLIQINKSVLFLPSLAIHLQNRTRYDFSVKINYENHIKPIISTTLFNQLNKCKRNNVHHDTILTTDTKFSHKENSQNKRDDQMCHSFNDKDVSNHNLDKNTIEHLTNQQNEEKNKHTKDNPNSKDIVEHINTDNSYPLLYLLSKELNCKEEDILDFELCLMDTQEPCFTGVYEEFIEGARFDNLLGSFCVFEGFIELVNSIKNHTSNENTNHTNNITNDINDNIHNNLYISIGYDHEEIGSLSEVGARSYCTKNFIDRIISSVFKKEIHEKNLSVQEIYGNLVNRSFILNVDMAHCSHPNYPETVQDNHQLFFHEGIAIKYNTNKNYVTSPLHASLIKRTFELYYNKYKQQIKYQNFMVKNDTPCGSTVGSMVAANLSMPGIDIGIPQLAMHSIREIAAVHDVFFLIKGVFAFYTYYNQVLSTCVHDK

[11] = biological target: Procathepsin L (Homo sapiens, UniProt P07711); test: CTSL1 protease inhibition – biochemical, QFRET, 1536-well, counter-screen for M1/M17 aminopeptidase inhibitor project, dose response (AID 2214)
[12] = viability loss of HPDE-C7K cells – cell-based, fluorescence, HTS, primary screen (AID 431); assay type: functional; settings: Homo sapiens
[13] = HPDE-C7 pancreatic duct cell viability loss – fluorescence, HTS (AID 430); assay type: functional, cell-based; settings: Homo sapiens

Neurotensin receptor type 1, sequence (P30989 whole entry): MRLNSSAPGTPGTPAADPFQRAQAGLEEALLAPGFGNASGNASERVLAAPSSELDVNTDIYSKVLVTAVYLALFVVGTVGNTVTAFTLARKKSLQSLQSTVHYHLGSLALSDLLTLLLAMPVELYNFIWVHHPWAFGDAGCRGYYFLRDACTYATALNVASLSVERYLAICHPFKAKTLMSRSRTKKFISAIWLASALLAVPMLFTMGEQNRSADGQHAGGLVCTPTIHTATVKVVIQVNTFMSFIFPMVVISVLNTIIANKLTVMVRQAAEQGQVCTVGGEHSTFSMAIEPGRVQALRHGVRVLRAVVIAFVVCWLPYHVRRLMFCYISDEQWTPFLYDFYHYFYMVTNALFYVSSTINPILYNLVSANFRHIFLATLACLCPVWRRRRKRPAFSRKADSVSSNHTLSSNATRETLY
Procathepsin L, sequence (P07711 whole entry): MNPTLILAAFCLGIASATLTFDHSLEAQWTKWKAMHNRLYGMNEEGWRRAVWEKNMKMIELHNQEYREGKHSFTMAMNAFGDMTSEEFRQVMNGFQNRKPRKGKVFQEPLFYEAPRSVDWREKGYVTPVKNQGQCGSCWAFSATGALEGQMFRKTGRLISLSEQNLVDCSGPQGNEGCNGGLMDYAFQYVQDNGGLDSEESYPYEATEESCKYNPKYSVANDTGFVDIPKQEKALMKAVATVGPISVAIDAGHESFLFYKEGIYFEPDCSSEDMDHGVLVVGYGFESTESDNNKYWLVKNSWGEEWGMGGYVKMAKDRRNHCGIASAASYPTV
Genome polyprotein, sequence (P29990 2492-3391 limits assumed): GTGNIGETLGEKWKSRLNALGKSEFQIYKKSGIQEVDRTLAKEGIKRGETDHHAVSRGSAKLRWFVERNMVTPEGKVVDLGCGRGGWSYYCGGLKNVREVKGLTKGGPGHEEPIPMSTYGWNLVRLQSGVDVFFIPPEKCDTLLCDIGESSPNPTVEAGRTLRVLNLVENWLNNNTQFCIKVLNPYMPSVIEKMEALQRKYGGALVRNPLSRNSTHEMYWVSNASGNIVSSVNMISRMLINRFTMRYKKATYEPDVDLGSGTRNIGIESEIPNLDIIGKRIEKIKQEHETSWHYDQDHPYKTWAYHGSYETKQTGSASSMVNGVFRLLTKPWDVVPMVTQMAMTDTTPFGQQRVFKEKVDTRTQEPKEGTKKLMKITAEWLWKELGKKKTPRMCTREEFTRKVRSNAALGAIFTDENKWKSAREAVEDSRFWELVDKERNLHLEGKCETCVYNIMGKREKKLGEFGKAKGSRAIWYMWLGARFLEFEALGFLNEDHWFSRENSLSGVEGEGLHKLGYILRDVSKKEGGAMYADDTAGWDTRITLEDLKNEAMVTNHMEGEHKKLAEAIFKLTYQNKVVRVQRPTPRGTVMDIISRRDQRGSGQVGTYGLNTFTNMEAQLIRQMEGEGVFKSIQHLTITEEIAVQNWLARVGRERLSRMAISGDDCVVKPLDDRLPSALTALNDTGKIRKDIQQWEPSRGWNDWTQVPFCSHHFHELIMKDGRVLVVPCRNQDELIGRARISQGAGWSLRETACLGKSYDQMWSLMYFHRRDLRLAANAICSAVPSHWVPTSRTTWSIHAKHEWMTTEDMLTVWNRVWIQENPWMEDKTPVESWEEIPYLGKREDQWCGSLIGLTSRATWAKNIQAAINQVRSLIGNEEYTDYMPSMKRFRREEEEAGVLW
Peroxisome proliferator-activated receptor gamma/Nuclear receptor coactivator 3, sequence (P37231 whole entry): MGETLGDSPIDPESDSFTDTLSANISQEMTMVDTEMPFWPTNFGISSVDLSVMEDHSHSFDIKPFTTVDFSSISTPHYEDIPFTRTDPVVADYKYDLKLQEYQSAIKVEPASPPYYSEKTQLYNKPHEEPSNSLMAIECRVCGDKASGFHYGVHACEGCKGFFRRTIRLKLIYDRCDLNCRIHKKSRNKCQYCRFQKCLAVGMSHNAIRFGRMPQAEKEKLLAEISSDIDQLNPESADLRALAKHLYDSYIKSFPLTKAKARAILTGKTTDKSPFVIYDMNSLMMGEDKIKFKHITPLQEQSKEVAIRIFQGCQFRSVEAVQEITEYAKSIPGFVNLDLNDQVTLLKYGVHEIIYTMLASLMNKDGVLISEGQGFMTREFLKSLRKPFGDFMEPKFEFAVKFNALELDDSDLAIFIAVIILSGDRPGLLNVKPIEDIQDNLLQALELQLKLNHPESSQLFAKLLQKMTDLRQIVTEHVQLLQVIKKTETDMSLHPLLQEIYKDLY
Peroxisome proliferator-activated receptor gamma/Nuclear receptor coactivator 3, sequence (Q9Y6Q9 whole entry, further chain): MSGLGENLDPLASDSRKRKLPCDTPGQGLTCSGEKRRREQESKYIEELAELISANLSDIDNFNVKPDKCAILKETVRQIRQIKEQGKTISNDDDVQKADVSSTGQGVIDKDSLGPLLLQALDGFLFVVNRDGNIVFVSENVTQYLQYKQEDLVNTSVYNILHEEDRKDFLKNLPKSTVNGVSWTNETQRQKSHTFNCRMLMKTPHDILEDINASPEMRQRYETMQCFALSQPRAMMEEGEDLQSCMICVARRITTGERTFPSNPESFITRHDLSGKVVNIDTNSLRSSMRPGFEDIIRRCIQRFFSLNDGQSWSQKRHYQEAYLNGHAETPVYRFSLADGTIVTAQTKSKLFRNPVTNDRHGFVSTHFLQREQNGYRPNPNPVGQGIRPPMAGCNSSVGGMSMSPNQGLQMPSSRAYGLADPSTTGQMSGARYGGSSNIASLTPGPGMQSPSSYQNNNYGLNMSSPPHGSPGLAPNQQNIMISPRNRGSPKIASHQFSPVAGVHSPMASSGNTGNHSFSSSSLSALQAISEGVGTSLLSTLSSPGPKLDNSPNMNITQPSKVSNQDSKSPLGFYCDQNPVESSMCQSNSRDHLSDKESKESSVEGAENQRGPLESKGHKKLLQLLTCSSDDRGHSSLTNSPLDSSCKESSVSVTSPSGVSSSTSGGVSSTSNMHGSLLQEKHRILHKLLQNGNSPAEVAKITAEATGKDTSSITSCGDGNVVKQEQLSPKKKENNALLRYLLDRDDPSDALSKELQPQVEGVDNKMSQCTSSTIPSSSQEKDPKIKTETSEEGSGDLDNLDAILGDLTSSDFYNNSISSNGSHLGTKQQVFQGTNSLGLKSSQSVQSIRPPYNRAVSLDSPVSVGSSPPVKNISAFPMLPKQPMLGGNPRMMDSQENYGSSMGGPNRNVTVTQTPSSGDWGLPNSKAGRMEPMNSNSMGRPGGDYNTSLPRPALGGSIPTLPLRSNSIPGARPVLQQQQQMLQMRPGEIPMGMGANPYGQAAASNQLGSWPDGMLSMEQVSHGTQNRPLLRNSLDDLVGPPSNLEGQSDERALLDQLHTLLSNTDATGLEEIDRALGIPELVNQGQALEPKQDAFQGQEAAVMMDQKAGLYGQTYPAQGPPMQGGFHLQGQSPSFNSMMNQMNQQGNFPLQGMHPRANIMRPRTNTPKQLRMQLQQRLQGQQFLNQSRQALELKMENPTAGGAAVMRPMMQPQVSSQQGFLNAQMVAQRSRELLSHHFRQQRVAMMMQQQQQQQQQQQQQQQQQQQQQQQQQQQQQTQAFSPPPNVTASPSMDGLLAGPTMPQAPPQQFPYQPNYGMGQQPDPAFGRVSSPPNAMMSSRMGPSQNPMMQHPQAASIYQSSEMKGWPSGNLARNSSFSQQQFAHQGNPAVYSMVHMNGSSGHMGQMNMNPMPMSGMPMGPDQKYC
DNA dC->dU-editing enzyme APOBEC-3G, sequence (Q9HC16 whole entry): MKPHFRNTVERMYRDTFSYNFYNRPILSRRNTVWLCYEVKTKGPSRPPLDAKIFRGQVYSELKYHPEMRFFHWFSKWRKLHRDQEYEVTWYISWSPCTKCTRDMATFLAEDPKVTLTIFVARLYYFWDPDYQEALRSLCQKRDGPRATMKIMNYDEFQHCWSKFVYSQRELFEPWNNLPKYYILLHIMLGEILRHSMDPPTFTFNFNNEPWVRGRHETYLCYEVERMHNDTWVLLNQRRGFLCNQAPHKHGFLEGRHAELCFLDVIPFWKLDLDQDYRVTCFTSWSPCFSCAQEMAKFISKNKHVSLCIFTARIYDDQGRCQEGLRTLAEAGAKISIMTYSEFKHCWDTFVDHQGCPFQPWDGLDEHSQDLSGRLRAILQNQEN

Structure (SMILES): CCOc1cc(NC(=O)c2cccs2)c(OCC)cc1N=C(S)NCC(C)C
- Absolute IC50 (XBP1) [1]: 10 µM

Structure (SMILES): CCN(CC)CCn1c2ccccc2c2nnc(S)nc21
- AC50 [2]: 5.41 µM (active)
- IC50 [3]: 19.5 µM (active)

Structure (SMILES): O=C1/C(=C/c2cccs2)SC(=S)N1NS(=O)(=O)c1ccccc1
- IC50 [8]: 57.4 µM (active)
- IC50 [9]: 16.6 µM (active)
- IC50 [10]: > 73.5 µM (not active)
- IC50 [11]: > 59.6 µM (not active)

Structure (SMILES): CCSC1=C(C#N)C(=O)n2c1cc1c2CCCC1
- EC50 [12]: 15.4 µM (active)
- EC50 [13]: 13.6 µM (active)

Other lines, results leading:

- EC50 [4]: > 79.4 µM (not active)
- EC50 [5]: > 79.4 µM (not active)
- EC50 [6]: > 79.4 µM (not active)
Structure (SMILES): Cn1cnnc1SCc1ccc(C(=O)N=Nc2c(O)n(C)c3ccccc23)cc1

- EC50 [7]: > 40 µM (inactive)
Structure (SMILES): C=CCn1/c(=N/C(=O)c2cccc(N3C(=O)CCC3=O)c2)sc2cccc(OC)c21

- Absolute IC50 (XBP1) [1]: 10 µM
Structure (SMILES): CC1CCc2c(sc3ncn(CC(=O)N=Nc4c(O)[nH]c5ccccc45)c(=O)c23)C1 (centres undefined)
